Reference: ChEMBL document CHEMBL3885861, “Open TG-GATES”

Species: Rattus norvegicus
Experiment: Open TG-GATES - Regimen: Single
Format: toxicity, organism-based, Sprague-Dawley
Parameters: regimen Single, gender Male, age 6 weeks
Conditions: in vivo, po, 100 mg/kg, route gavage, dose level Low; for APTT / Bas / Eos / Fbg / Hb / Ht / Lym / MCH / MCHC / MCV / Mono / Neu / PT / Plat / RBC / Ret / WBC: tissue Blood; for KIDNEY_L / KIDNEY_R / KIDNEY_TOTAL: tissue Kidney; for LIVER: tissue Liver; for A/G / ALP / ALT / AST / BUN / CRE / Ca / Cl / DBIL / GLC / IP / K / LDH / Na / PL / RALB / TBIL / TC / TG / TP / gamma-GTP: tissue Plasma

Compound `CC(=O)Nc1ccc2c(c1)Cc1ccccc1-2` [2-ACETYLAMINOFLUORENE] has a TERMINAL_BW (3 h) of 222.2 g, an APTT (3 h) of 19.4 s and a Bas (3 h) of 0.8%. For the same compound, the Eos (3 h) was 1%, the Fbg (3 h) was 228.6 mg/dL and the Hb (3 h) was 14.1 g/dL. The Ht (3 h) was 40.7%, the Lym (3 h) was 76.4% and the MCH (3 h) was 21.6 pg. The MCHC (3 h) was 34.7%, the MCV (3 h) was 62.3 fL and the Mono (3 h) was 2%. The Neu (3 h) was 19.2%, the PT (3 h) was 11.6 s and the Plat (3 h) was 114.3 x10_4/uL. The RBC (3 h) was 653.2 x10_4/ul, the Ret (3 h) was 7% and the WBC (3 h) was 73.8 x10_2/uL. The KIDNEY_L (3 h) was 1 g, the KIDNEY_R (3 h) was 1 g and the KIDNEY_TOTAL (3 h) was 2 g. The LIVER (3 h) was 10.4 g, the A/G (3 h) was 1.8 and the ALP (3 h) was 1019.4 IU/L. The ALT (3 h) was 37.6 IU/L, the AST (3 h) was 77 IU/L and the BUN (3 h) was 13.2 mg/dL. The CRE (3 h) was 0.4 mg/dL, the Ca (3 h) was 10.7 mg/dL and the Cl (3 h) was 103.4 meq/L. It also gave a DBIL (3 h) of 0.07 mg/dL, a GLC (3 h) of 212.8 mg/dL and an IP (3 h) of 10.8 mg/dL. It also gave a K (3 h) of 4 meq/L, an LDH (3 h) of 203.8 IU/L and a Na (3 h) of 141.4 meq/L. For the same compound, the PL (3 h) was 151 mg/dL, the RALB (3 h) was 3.6 g/dL and the TBIL (3 h) was 0.1 mg/dL. The TC (3 h) was 92.6 mg/dL, the TG (3 h) was 45.8 mg/dL and the TP (3 h) was 5.6 g/dL. The gamma-GTP (3 h) was 1 IU/L, the TERMINAL_BW (6 h) was 219.9 g and the APTT (6 h) was 20.9 s. The Bas (6 h) was 0.4%, the Eos (6 h) was 1% and the Fbg (6 h) was 221.6 mg/dL. It also gave a Hb (6 h) of 13.9 g/dL, a Ht (6 h) of 40.1% and a Lym (6 h) of 81.6%. The MCH (6 h) was 21.3 pg, the MCHC (6 h) was 34.6% and the MCV (6 h) was 61.5 fL. For the same compound, the Mono (6 h) was 2.4%, the Neu (6 h) was 14.2% and the PT (6 h) was 12.2 s. It also gave a Plat (6 h) of 132.9 x10_4/uL, an RBC (6 h) of 652 x10_4/ul and a Ret (6 h) of 7%. It also gave a WBC (6 h) of 82.3 x10_2/uL, a KIDNEY_L (6 h) of 1 g and a KIDNEY_R (6 h) of 1 g. The KIDNEY_TOTAL (6 h) was 2 g, the LIVER (6 h) was 9.9 g and the A/G (6 h) was 1.6. For the same compound, the ALP (6 h) was 792.8 IU/L, the ALT (6 h) was 31.6 IU/L and the AST (6 h) was 70.6 IU/L. It also gave a BUN (6 h) of 10 mg/dL, a CRE (6 h) of 0.4 mg/dL and a Ca (6 h) of 10.5 mg/dL. It also gave a Cl (6 h) of 101.8 meq/L, a DBIL (6 h) of 0.064 mg/dL and a GLC (6 h) of 195.6 mg/dL. For the same compound, the IP (6 h) was 9.4 mg/dL, the K (6 h) was 4.1 meq/L and the LDH (6 h) was 169 IU/L. For the same compound, the Na (6 h) was 140.4 meq/L, the PL (6 h) was 135.6 mg/dL and the RALB (6 h) was 3.4 g/dL. It also gave a TBIL (6 h) of 0.1 mg/dL, a TC (6 h) of 79.2 mg/dL and a TG (6 h) of 45.2 mg/dL. The TP (6 h) was 5.6 g/dL, the gamma-GTP (6 h) was 1 IU/L and the TERMINAL_BW (9 h) was 218.6 g. It also gave an APTT (9 h) of 19 s, a Bas (9 h) of 0.6% and an Eos (9 h) of 0.8%. For the same compound, the Fbg (9 h) was 227.6 mg/dL, the Hb (9 h) was 14.1 g/dL and the Ht (9 h) was 40.8%. The Lym (9 h) was 72.8%, the MCH (9 h) was 21.4 pg and the MCHC (9 h) was 34.5%. It also gave an MCV (9 h) of 62.2 fL, a Mono (9 h) of 3% and a Neu (9 h) of 22%. The PT (9 h) was 12.9 s, the Plat (9 h) was 124.3 x10_4/uL and the RBC (9 h) was 655 x10_4/ul. It also gave a Ret (9 h) of 6.7%, a WBC (9 h) of 79.5 x10_2/uL and a KIDNEY_L (9 h) of 0.9 g. The KIDNEY_R (9 h) was 0.9 g, the KIDNEY_TOTAL (9 h) was 1.9 g and the LIVER (9 h) was 9.5 g. It also gave an A/G (9 h) of 1.5, an ALP (9 h) of 754.8 IU/L and an ALT (9 h) of 31 IU/L. It also gave an AST (9 h) of 67.2 IU/L, a BUN (9 h) of 10.8 mg/dL and a CRE (9 h) of 0.4 mg/dL. For the same compound, the Ca (9 h) was 10.5 mg/dL, the Cl (9 h) was 104.2 meq/L and the DBIL (9 h) was 0.064 mg/dL. The GLC (9 h) was 211.2 mg/dL, the IP (9 h) was 9.1 mg/dL and the K (9 h) was 3.8 meq/L. It also gave an LDH (9 h) of 230 IU/L, a Na (9 h) of 141.2 meq/L and a PL (9 h) of 124.8 mg/dL. It also gave an RALB (9 h) of 3.4 g/dL, a TBIL (9 h) of 0.1 mg/dL and a TC (9 h) of 65 mg/dL. For the same compound, the TG (9 h) was 56.8 mg/dL, the TP (9 h) was 5.7 g/dL and the gamma-GTP (9 h) was 1 IU/L. For the same compound, the TERMINAL_BW (24 h) was 221.4 g, the APTT (24 h) was 21.7 s and the Bas (24 h) was 0.2%. The Eos (24 h) was 1%, the Fbg (24 h) was 215.6 mg/dL and the Hb (24 h) was 14.6 g/dL. It also gave a Ht (24 h) of 42%, a Lym (24 h) of 76.8% and an MCH (24 h) of 22.2 pg. It also gave an MCHC (24 h) of 34.7%, an MCV (24 h) of 63.8 fL and a Mono (24 h) of 5%. For the same compound, the Neu (24 h) was 16.6%, the PT (24 h) was 14.5 s and the Plat (24 h) was 140.8 x10_4/uL. It also gave an RBC (24 h) of 658.2 x10_4/ul, a Ret (24 h) of 6.5% and a WBC (24 h) of 91.5 x10_2/uL. For the same compound, the KIDNEY_L (24 h) was 1 g, the KIDNEY_R (24 h) was 1 g and the KIDNEY_TOTAL (24 h) was 2.1 g. The LIVER (24 h) was 11.2 g, the A/G (24 h) was 1.8 and the ALP (24 h) was 1020 IU/L. For the same compound, the ALT (24 h) was 37.8 IU/L, the AST (24 h) was 74 IU/L and the BUN (24 h) was 17.2 mg/dL. The CRE (24 h) was 0.4 mg/dL, the Ca (24 h) was 10.4 mg/dL and the Cl (24 h) was 105.4 meq/L. It also gave a DBIL (24 h) of 0.1 mg/dL, a GLC (24 h) of 187.8 mg/dL and an IP (24 h) of 8.4 mg/dL. It also gave a K (24 h) of 4.6 meq/L, an LDH (24 h) of 207.4 IU/L and a Na (24 h) of 140.6 meq/L. For the same compound, the PL (24 h) was 120.8 mg/dL, the RALB (24 h) was 3.3 g/dL and the TBIL (24 h) was 0.2 mg/dL. For the same compound, the TC (24 h) was 52 mg/dL, the TG (24 h) was 120.6 mg/dL and the TP (24 h) was 5.1 g/dL. The gamma-GTP (24 h) was 1.4 IU/L.
